Like-named read-outs stand apart in the source and are kept apart here.
Legend:
CYP2C8 = target: T1, CYP2C8 (Homo sapiens, UniProt P10632); assay: Time-dependent inhibition (IC50 shift) of CYP2C8, amodiaquine, human liver microsomes; type: in vitro ADME; parameters: incubation mixtures containing pooled human liver microsomes (HLMs, XTreme 200, XenoTech); tissue XenoTech XTreme 200; host or cells: pooled human liver microsomes
T1 sequence (P10632 1-490): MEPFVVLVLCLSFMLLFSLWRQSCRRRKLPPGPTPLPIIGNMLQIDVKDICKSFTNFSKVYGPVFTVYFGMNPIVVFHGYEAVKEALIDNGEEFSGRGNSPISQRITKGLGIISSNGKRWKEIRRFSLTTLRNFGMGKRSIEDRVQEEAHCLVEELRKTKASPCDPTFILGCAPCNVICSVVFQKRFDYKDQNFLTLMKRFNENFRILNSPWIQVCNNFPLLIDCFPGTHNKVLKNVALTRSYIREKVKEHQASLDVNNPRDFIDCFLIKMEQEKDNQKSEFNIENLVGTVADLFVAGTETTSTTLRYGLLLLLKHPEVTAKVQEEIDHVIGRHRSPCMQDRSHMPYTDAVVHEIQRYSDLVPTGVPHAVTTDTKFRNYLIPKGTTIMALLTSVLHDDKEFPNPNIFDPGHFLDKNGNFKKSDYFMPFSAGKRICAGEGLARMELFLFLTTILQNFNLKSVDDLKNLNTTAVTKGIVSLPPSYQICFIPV
Method: (§1) The time-dependent inhibition of selamariscina A against CYP2C8 and CYP2C9 enzymes was evaluated using an IC50 shift method. Selamariscina A was pre-incubated at six concentrations (0, 0.002, 0.005, 0.02, 0.05, and 0.2 μM) with HLMs in the presence of an NDAPH generation system for 30 min at 37 °C. The reaction was initiated by adding 1 μM amodiaquine or 10 μM diclofenac and further incubated for 10 min. Incubation was terminated by adding 50 μL of ice-cold acetonitrile containing 7 nM trimipramine. After centrifugation, aliquots of supernatants were analyzed by LC–MS/MS.
(§2) All metabolites and the IS were separated on a Kinetex XB-C18 column (100 × 2.10 mm, 2.6 μm, 100 Å; Phenomenex, Torrance, CA, USA) and analyzed using a Shimadzu LCMS 8060 triple-quadrupole mass spectrometer coupled with a Nexera X2 ultra high-performance liquid chromatography system (Shimadzu, Kyoto, Japan) equipped with an electrospray ionization interface. The mobile phase consisted of 0.1% formic acid in water (A) and 0.1% formic acid in acetonitrile (B). The elution condition was set as 8% B (0–0.5 min), 8%→60% B (0.5–5 min), 60% B (5–6 min), 60%→8% B (6–6.1 min) and 8% B (6.1–9 min) for the analysis of metabolites of P450 probe substrates and set as 0%→40% B (0–1 min), 40%→50% B (1–5 min), 50%→0% B (5–5.1 min), and 0% B (5.1–8 min) for the analysis of metabolites of UGT probe substrates. The flow rate was 0.2 mL/min. Electrospray ionization was performed in positive-ion mode at 4000 V or in negative-ion mode at −3500 V. The optimum operating conditions were determined as follows: vaporizer temperature, 300 °C; capillary temperature, 350 °C; collision gas (argon) pressure, 1.5 mTorr. Quantitation was conducted in selected reaction monitoring (SRM) modes with the precursor-to-product ion transition for each metabolite (Table 1 and Table 2).
(§3) We analyzed the data with Shimadzu LabSolution LC–MS software. The IC50 values were calculated by WinNonlin software (Pharsight, Mountain View, CA, USA). […]

CYP2C9 = CYP2C9 (Homo sapiens, UniProt P11712); assay: Time-dependent inhibition (IC50 shift) of CYP2C9, diclofenac, human liver microsomes; type: in vitro ADME; parameters: incubation mixtures containing pooled human liver microsomes (HLMs, XTreme 200, XenoTech); tissue XenoTech XTreme 200; host or cells: pooled human liver microsomes
Chain of CYP2C9 (P11712 whole entry): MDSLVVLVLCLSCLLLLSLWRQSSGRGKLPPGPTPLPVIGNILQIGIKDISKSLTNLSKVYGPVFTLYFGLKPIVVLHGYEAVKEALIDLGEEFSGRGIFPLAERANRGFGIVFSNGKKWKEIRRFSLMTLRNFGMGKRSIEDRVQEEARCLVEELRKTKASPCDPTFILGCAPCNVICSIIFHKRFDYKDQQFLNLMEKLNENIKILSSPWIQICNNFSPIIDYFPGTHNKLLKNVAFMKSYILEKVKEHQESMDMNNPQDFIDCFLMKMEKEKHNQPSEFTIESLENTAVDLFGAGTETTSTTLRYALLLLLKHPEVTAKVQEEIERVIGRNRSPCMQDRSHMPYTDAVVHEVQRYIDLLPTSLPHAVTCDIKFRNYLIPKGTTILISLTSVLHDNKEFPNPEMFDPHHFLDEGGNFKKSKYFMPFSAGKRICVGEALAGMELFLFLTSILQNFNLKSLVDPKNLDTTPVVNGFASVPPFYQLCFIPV
Method: as §1, §2, §3

With `O=C1CC(c2cc(-c3c(O)ccc4c(=O)cc(-c5ccc(O)cc5)oc34)c(O)cc2O)Oc2cc(O)cc(O)c21` (stereo not drawn) [selamariscina A] the IC50 (CYP2C8; 30 min pre-incubation at 37 °C with NADPH generation system, read-out: IC50, CYP2C8 amodiaquine, HLMs pre-incubated with NADPH generation system) was 31 nM, the “Time-dependent inhibition of CYP2C8” value (CYP2C8; IC50 shift method) was “not a time-dependent inhibitor” and the IC50 (CYP2C8; no NADPH pre-incubation, read-out: IC50, CYP2C8 amodiaquine, untreated HLMs) was 19 nM. The IC50 (CYP2C9; 30 min pre-incubation at 37 °C with NADPH generation system, read-out: IC50, CYP2C9 diclofenac, HLMs pre-incubated with NADPH generation system) was 92 nM, the “Time-dependent inhibition of CYP2C9” value (CYP2C9; IC50 shift method) was “not a time-dependent inhibitor” and the IC50 at 10 min (CYP2C9; human, human liver microsomes, probe diclofenac (10 μM), no NADPH pre-incubation, read-out: IC50, CYP2C9 diclofenac, untreated HLMs) was 54 nM.

From PMC7238120, “Strong and Selective Inhibitory Effects of the Biflavonoid Selamariscina A against CYP2C8 and CYP2C9 Enzyme Activities in Human Liver Microsomes” (Pharmaceutics, 2020)
